± gives the standard deviation of the averaged measurements.
Experiment: TIMS collisional cross section (CCS, N2) of the lipid ion; higher = larger ion cross section
Conditions: ionization mode: positive, one isomer drawn

Row | SMILES | TIMS collisional cross section (sample type: Liver) [Å²] | TIMS collisional cross section (sample type: HeLa) [Å²] | TIMS collisional cross section (sample type: plasma) [Å²]
1 | CCCCCCC/C=C\CCCCCCCC(=O)OC[C@H](COC(=O)CCCCCCCCCCCCCCCCCC)OC(=O)CCCCCCC/C=C\CCCCCCCC [TG 17:1_18:1_19:0] (ion (formula + adduct): [C57H106O6+NH4] 1+) | 328.8 |  | 
2 | CCCCC/C=C\C/C=C\C/C=C\CCCCCCCCC(=O)OC[C@@H](COC(=O)CCCCCCC/C=C\CCCCCCC)OC(=O)CCCCCCC/C=C\CCCCCCCC [TG 17:1_18:1_22:3] (ion (formula + adduct): [C60H106O6+NH4] 1+) |  | 332 | 
3 | CC/C=C\C/C=C\C/C=C\C/C=C\C/C=C\CCCCCC(=O)OC[C@@H](COC(=O)CCCCCCC/C=C\CCCCCCC)OC(=O)CCCCCCC/C=C\CCCCCCCC [TG 17:1_18:1_22:5] (ion (formula + adduct): [C60H102O6+NH4] 1+) |  | 328.8 | 
4 | CC/C=C\C/C=C\C/C=C\C/C=C\C/C=C\C/C=C\CCC(=O)OC[C@@H](COC(=O)CCCCCCC/C=C\CCCCCCC)OC(=O)CCCCCCC/C=C\CCCCCCCC [TG 17:1_18:1_22:6] (ion (formula + adduct): [C60H100O6+NH4] 1+) |  | 328.2 | 
5 | CCCCC/C=C\C/C=C\CCCCCCCC(=O)OC[C@@H](COC(=O)CCCCCCC/C=C\CCCCCCC)OC(=O)CCCCCCC/C=C\C/C=C\CCCCC [TG 17:1_18:2_18:2] (ion (formula + adduct): [C56H98O6+NH4] 1+) | 317.5 |  | 318.3
6 | CC/C=C\C/C=C\C/C=C\CCCCCCCC(=O)OC[C@@H](COC(=O)CCCCCCC/C=C\CCCCCCC)OC(=O)CCCCCCC/C=C\C/C=C\CCCCC [TG 17:1_18:2_18:3] (ion (formula + adduct): [C56H96O6+NH4] 1+) |  |  | 317.2
7 | CCCCC/C=C\C/C=C\C/C=C\C/C=C\CCCC(=O)OC[C@@H](COC(=O)CCCCCCC/C=C\CCCCCCC)OC(=O)CCCCCCC/C=C\C/C=C\CCCCC [TG 17:1_18:2_20:4] (ion (formula + adduct): [C58H98O6+NH4] 1+) | 322.8 |  | 
8 | CCCCCCC/C=C\CCCCCCCC(=O)OC[C@H](COC(=O)CCCCCCCCCCC/C=C\CCCCCCCC)OC(=O)CCCCCCCCC/C=C\CCCCCCCC [TG 17:1_20:1_22:1] (ion (formula + adduct): [C62H114O6+NH4] 1+) | 340 |  | 
9 | CCCC/C=C\C/C=C\CCCCCCCC(=O)OC[C@H](COC(=O)CCC/C=C\C/C=C\C/C=C\C/C=C\CCCCC)OC(=O)CCCCCCC/C=C\C/C=C\CCCCC [TG 17:2_18:2_20:4] (ion (formula + adduct): [C58H96O6+NH4] 1+) | 322.2 |  | 
10 | CCCCCCCC/C=C\CCCCCCCC(=O)OC[C@@H](COC(=O)CCCCCCCCCCCCCCCCC)OC(=O)CCCCCCCCCCCCCCCCC [TG 18:0_18:0_18:1] (ion (formula + adduct): [C57H108O6+NH4] 1+) |  |  | 330.6
11 | CCCCCCCCCCCCCCCCCCCCCC(=O)OC[C@@H](COC(=O)CCCCCCCCCCCCCCCCC)OC(=O)CCCCCCCCCCCCCCCCC [TG 18:0_18:0_22:0] (ion (formula + adduct): [C61H118O6+NH4] 1+) | 344.1 |  | 
12 | CCCCCCCC/C=C\CCCCCCCC(=O)OC[C@@H](COC(=O)CCCCCCCCCCCCCCCCC)OC(=O)CCCCCCC/C=C\CCCCCCCC [TG 18:0_18:1_18:1] (ion (formula + adduct): [C57H106O6+NH4] 1+) |  |  | 328.45 ± 0.49
13 | CCCCC/C=C\C/C=C\CCCCCCCC(=O)OC[C@@H](COC(=O)CCCCCCCCCCCCCCCCC)OC(=O)CCCCCCC/C=C\CCCCCCCC [TG 18:0_18:1_18:2] (ion (formula + adduct): [C57H104O6+NH4] 1+) | 326.4 | 325.1 | 326.25 ± 0.49
14 | CC/C=C\C/C=C\C/C=C\CCCCCCCC(=O)OC[C@@H](COC(=O)CCCCCCCCCCCCCCCCC)OC(=O)CCCCCCC/C=C\CCCCCCCC [TG 18:0_18:1_18:3] (ion (formula + adduct): [C57H102O6+NH4] 1+) | 324.1 |  | 
15 | CCCCCCCC/C=C\CCCCCCCCCC(=O)OC[C@@H](COC(=O)CCCCCCCCCCCCCCCCC)OC(=O)CCCCCCC/C=C\CCCCCCCC [TG 18:0_18:1_20:1] (ion (formula + adduct): [C59H110O6+NH4] 1+) |  | 333.7 | 334.1
16 | CCCCCCCC/C=C\CCCCCCCC(=O)O[C@H](COC(=O)CCCCCCCCCCCCCCCCC)COC(=O)CCCCCCCCCCCCCCCCCCCCC [TG 18:0_18:1_22:0] (ion (formula + adduct): [C61H116O6+NH4] 1+) | 342 | 341.8 | 341.9
17 | CCCCCCCC/C=C\CCCCCCCCCCCC(=O)OC[C@@H](COC(=O)CCCCCCCCCCCCCCCCC)OC(=O)CCCCCCC/C=C\CCCCCCCC [TG 18:0_18:1_22:1] (ion (formula + adduct): [C61H114O6+NH4] 1+) |  | 339.3 | 

Row | SMILES | TIMS collisional cross section (sample type: Liver) [Å²] | TIMS collisional cross section (sample type: HeLa) [Å²] | TIMS collisional cross section (sample type: plasma) [Å²]
18 | CCCCC/C=C\C/C=C\C/C=C\CCCCCCCCC(=O)OC[C@@H](COC(=O)CCCCCCCCCCCCCCCCC)OC(=O)CCCCCCC/C=C\CCCCCCCC [TG 18:0_18:1_22:3] (ion (formula + adduct): [C61H110O6+NH4] 1+) |  | 336.5 | 
19 | CC/C=C\C/C=C\C/C=C\C/C=C\C/C=C\C/C=C\CCC(=O)OC[C@@H](COC(=O)CCCCCCCCCCCCCCCCC)OC(=O)CCCCCCC/C=C\CCCCCCCC [TG 18:0_18:1_22:6] (ion (formula + adduct): [C61H104O6+NH4] 1+) | 333.4 | 333.1 | 
20 | CCCCC/C=C\C/C=C\CCCCCCCCCC(=O)OC[C@@H](COC(=O)CCCCCCCCCCCCCCCCC)OC(=O)CCCCCCC/C=C\C/C=C\CCCCC [TG 18:0_18:2_20:2] (ion (formula + adduct): [C59H106O6+NH4] 1+) | 330.3 |  | 
21 | CCCCC/C=C\C/C=C\C/C=C\C/C=C\CCCCCC(=O)OC[C@@H](COC(=O)CCCCCCCCCCCCCCCCC)OC(=O)CCCCCCC/C=C\C/C=C\CCCCC [TG 18:0_18:2_22:4] (ion (formula + adduct): [C61H106O6+NH4] 1+) |  | 335.4 | 
22 | CC/C=C\C/C=C\C/C=C\C/C=C\C/C=C\CCCC(=O)OC[C@@H](COC(=O)CCCCCCCCCCCCCCCCC)OC(=O)CCCCCCC/C=C\C/C=C\C/C=C\CC [TG 18:0_18:3_20:5] (ion (formula + adduct): [C59H98O6+NH4] 1+) |  |  | 325.1
23 | CCCCCCCCCCCCCCCCCCCCCC(=O)OC[C@@H](COC(=O)CCCCCCCCCCCCCCCCC)OC(=O)CCCCCCCCCCCCCCCCCC [TG 18:0_19:0_22:0] (ion (formula + adduct): [C62H120O6+NH4] 1+) | 346.5 |  | 
24 | CCCCCCCCCCCCCCCCCCCCCC(=O)OC[C@@H](COC(=O)CCCCCCCCCCCCCCCCC)OC(=O)CCCCCCCCCCCCCCCCCCC [TG 18:0_20:0_22:0] (ion (formula + adduct): [C63H122O6+NH4] 1+) | 349.3 |  | 349.1
25 | CC/C=C\C/C=C\C/C=C\C/C=C\C/C=C\CCCCCC(=O)OC[C@@H](COC(=O)CCCCCCCCCCCCCCCCC)OC(=O)CCC/C=C\C/C=C\C/C=C\C/C=C\CCCCC [TG 18:0_20:4_22:5] (ion (formula + adduct): [C63H104O6+NH4] 1+) |  | 334.8 | 
26 | CCCCCCCCCCCCCCCCCCCCCC(=O)OC[C@@H](COC(=O)CCCCCCCCCCCCCCCCC)OC(=O)CCCCCCCCCCCCCCCCCCCC [TG 18:0_21:0_22:0] (ion (formula + adduct): [C64H124O6+NH4] 1+) | 351.7 |  | 352.7
27 | CCCCCCCCCCCCCCCCCCCCCC(=O)OC[C@@H](COC(=O)CCCCCCCCCCCCCCCCC)OC(=O)CCCCCCCCCCCCCCCCCCCCC [TG 18:0_22:0_22:0] (ion (formula + adduct): [C65H126O6+NH4] 1+) | 355.9 |  | 355.2
28 | CCCCCCCC/C=C\CCCCCCCCCCCC(=O)OC[C@@H](COC(=O)CCCCCCCCCCCCCCCCC)OC(=O)CCCCCCCCCCCCCCCCCCCCC [TG 18:0_22:0_22:1] (ion (formula + adduct): [C65H124O6+NH4] 1+) |  |  | 352.8
29 | CCCCC/C=C\C/C=C\CCCCCCCCCCCC(=O)OC[C@@H](COC(=O)CCCCCCCCCCCCCCCCC)OC(=O)CCCCCCCCCCCCCCCCCCCCC [TG 18:0_22:0_22:2] (ion (formula + adduct): [C65H122O6+NH4] 1+) |  |  | 351
30 | CCCCCCCC/C=C\CCCCCCCCCCCC(=O)OC[C@@H](COC(=O)CCCCCCCCCCCCCCCCC)OC(=O)CCCCCCCCCCC/C=C\CCCCCCCC [TG 18:0_22:1_22:1] (ion (formula + adduct): [C65H122O6+NH4] 1+) |  | 350.2 | 
31 | CCCCC/C=C\C/C=C\CCCCCCCC(=O)OC[C@@H](COC(=O)CCCCCCC/C=C\CCCCCCCC)OC(=O)CCCCCCC/C=C\CCCCCCCC [TG 18:1_18:1_18:2] (ion (formula + adduct): [C57H102O6+NH4] 1+) |  | 324.3 | 324.25 ± 0.35
32 | CCCCCCCC/C=C\CCCCCCCC(=O)OC[C@H](COC(=O)CCCCCCC/C=C\CCCCCCCCC)OC(=O)CCCCCCC/C=C\CCCCCCCC [TG 18:1_18:1_19:1] (ion (formula + adduct): [C58H106O6+NH4] 1+) |  | 329.1 | 
33 | CCCCCCCC/C=C\CCCCCCCCCC(=O)OC[C@@H](COC(=O)CCCCCCC/C=C\CCCCCCCC)OC(=O)CCCCCCC/C=C\CCCCCCCC [TG 18:1_18:1_20:1] (ion (formula + adduct): [C59H108O6+NH4] 1+) |  | 332.1 | 332.4
